In ChEMBL document CHEMBL4507297, “Data for DCP probe PF-04457845” (2021):

Legend:
[1] = molecular target: Phosphatidylinositol 4-phosphate 5-kinase type-1 gamma (Homo sapiens) (UniProt O60331); details: Compound concentration 1000.0 nM
[2] = molecular target: Serine/threonine-protein kinase MRCK alpha (Homo sapiens) (UniProt Q5VT25); details: Compound concentration 1000.0 nM
[3] = molecular target: Cyclin-dependent kinase-like 2 (Homo sapiens) (UniProt Q92772); details: Compound concentration 1000.0 nM
[4] = molecular target: Mitogen-activated protein kinase 15 (Homo sapiens) (UniProt Q8TD08); details: Compound concentration 1000.0 nM
Sequence of Mitogen-activated protein kinase 15 (Homo sapiens) (Q8TD08 whole entry, canonical isoform): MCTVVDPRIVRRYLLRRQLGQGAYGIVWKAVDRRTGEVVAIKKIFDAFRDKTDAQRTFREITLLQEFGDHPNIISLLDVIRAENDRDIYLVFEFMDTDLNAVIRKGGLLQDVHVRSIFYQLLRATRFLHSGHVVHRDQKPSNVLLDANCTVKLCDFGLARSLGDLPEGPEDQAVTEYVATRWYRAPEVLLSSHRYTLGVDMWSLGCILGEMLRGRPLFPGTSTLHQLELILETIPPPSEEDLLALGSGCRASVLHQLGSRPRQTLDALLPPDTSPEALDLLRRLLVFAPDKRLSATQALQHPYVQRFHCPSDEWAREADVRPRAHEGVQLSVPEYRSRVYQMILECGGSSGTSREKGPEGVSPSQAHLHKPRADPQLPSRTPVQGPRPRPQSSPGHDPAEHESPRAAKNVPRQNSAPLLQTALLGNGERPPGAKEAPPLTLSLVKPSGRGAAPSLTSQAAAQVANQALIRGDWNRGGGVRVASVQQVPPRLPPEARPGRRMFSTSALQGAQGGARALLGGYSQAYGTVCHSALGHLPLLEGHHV

[5] = molecular target: Casein kinase I isoform alpha-like (Homo sapiens) (UniProt Q8N752); details: Compound concentration 1000.0 nM
[6] = molecular target: Casein kinase I isoform epsilon (Homo sapiens) (UniProt P49674); details: Compound concentration 1000.0 nM
[7] = molecular target: Serine/threonine-protein kinase PLK3 (Homo sapiens) (UniProt Q9H4B4); details: Compound concentration 1000.0 nM
Sequence of Serine/threonine-protein kinase PLK3 (Homo sapiens) (Q9H4B4 whole entry, looked up): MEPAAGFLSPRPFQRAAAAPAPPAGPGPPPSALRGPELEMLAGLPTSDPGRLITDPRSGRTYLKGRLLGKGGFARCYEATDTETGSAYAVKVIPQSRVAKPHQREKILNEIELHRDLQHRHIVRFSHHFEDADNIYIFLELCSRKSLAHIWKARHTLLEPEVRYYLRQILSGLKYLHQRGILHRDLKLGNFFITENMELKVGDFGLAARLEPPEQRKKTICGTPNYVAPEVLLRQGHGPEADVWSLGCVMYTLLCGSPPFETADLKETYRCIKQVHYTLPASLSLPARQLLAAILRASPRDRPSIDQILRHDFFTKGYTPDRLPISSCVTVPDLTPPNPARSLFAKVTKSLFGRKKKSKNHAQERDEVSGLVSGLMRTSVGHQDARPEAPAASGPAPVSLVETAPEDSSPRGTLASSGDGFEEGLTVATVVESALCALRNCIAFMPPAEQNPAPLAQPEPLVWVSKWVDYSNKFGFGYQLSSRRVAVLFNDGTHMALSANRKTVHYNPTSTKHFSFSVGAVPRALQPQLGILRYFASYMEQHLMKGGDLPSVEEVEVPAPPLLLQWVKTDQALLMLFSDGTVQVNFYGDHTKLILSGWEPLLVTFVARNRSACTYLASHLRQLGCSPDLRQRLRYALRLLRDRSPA

[8] = molecular target: Leucine-rich repeat serine/threonine-protein kinase 2 (Homo sapiens) (UniProt Q5S007); details: Compound concentration 1000.0 nM
[9] = molecular target: Cyclin-G-associated kinase (Homo sapiens) (UniProt O14976); details: Compound concentration 1000.0 nM
[10] = molecular target: Glycogen synthase kinase-3 beta (Homo sapiens) (UniProt P49841); details: Compound concentration 1000.0 nM
[11] = molecular target: Muscle, skeletal receptor tyrosine-protein kinase (Homo sapiens) (UniProt O15146); details: Compound concentration 1000.0 nM
[12] = molecular target: Uncharacterized serine/threonine-protein kinase SBK3 (Homo sapiens) (UniProt P0C264); details: Compound concentration 1000.0 nM
[13] = molecular target: Serine/threonine-protein kinase N2 (Homo sapiens) (UniProt Q16513); details: Compound concentration 1000.0 nM
[14] = test system: Receptor-type tyrosine-protein kinase FLT3 (Homo sapiens), P36888 [N841I]; details: Compound concentration 1000.0 nM
[15] = molecular target: High affinity nerve growth factor receptor (Homo sapiens) (UniProt P04629); details: Compound concentration 1000.0 nM
[16] = test system: Receptor-type tyrosine-protein kinase FLT3 (Homo sapiens), P36888 [UNDEFINED MUTATION]; details: Compound concentration 1000.0 nM
[17] = molecular target: Bone morphogenetic protein receptor type-1A (Homo sapiens) (UniProt P36894); details: Compound concentration 1000.0 nM
Sequence of Bone morphogenetic protein receptor type-1A (Homo sapiens) (P36894 whole entry): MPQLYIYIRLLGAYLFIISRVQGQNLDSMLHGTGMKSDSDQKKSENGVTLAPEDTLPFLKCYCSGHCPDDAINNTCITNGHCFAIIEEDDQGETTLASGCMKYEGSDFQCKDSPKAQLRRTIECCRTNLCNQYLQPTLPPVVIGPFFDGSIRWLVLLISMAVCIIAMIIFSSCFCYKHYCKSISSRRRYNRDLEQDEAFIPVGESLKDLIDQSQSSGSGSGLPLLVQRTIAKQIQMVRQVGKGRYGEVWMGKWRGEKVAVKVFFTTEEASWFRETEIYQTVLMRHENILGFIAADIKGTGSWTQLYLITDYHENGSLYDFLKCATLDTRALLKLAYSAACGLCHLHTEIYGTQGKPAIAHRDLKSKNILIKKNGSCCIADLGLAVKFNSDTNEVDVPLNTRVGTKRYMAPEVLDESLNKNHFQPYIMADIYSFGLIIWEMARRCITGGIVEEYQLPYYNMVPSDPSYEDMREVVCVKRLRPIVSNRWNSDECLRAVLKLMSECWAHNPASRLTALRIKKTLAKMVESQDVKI

[18] = molecular target: Activin receptor type-2B (Homo sapiens) (UniProt Q13705); details: Compound concentration 1000.0 nM
Sequence of Activin receptor type-2B (Homo sapiens) (Q13705 whole entry): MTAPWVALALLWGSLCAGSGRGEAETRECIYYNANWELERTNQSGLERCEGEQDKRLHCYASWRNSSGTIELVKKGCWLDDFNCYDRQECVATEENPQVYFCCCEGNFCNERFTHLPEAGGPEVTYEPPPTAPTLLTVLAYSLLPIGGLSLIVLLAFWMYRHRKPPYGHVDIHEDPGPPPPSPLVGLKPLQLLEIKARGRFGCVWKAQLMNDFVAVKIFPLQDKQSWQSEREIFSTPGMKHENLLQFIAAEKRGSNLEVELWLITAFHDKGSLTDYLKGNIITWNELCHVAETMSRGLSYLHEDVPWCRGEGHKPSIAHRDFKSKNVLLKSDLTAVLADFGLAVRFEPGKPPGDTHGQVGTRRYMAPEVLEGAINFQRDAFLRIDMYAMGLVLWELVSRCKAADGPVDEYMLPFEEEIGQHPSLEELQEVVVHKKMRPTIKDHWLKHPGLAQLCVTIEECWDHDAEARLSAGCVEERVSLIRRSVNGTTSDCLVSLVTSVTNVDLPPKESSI

[19] = molecular target: Serine/threonine-protein kinase ICK (Homo sapiens) (UniProt Q9UPZ9); details: Compound concentration 1000.0 nM
[20] = molecular target: Focal adhesion kinase 1 (Homo sapiens) (UniProt Q05397); details: Compound concentration 1000.0 nM
[21] = molecular target: Sodium-dependent serotonin transporter (Homo sapiens) (UniProt P31645); details: Compound concentration 10.0 uM
[22] = molecular target: Serine/threonine-protein kinase ULK2 (Homo sapiens) (UniProt Q8IYT8); details: Compound concentration 1000.0 nM
[23] = molecular target: Muscarinic acetylcholine receptor M4 (Homo sapiens) (UniProt P08173); details: Compound concentration 10.0 uM
[24] = molecular target: Cyclin-dependent kinase 3 (Homo sapiens) (UniProt Q00526); details: Compound concentration 1000.0 nM
[25] = molecular target: Calcium/calmodulin-dependent protein kinase type II subunit gamma (Homo sapiens) (UniProt Q13555); details: Compound concentration 1000.0 nM
[26] = molecular target: STE20/SPS1-related proline-alanine-rich protein kinase (Homo sapiens) (UniProt Q9UEW8); details: Compound concentration 1000.0 nM
[27] = molecular target: Serine/threonine-protein kinase PAK 6 (Homo sapiens) (UniProt Q9NQU5); details: Compound concentration 1000.0 nM
[28] = molecular target: Serine/threonine-protein kinase PAK 4 (Homo sapiens) (UniProt O96013); details: Compound concentration 1000.0 nM
[29] = molecular target: Mitogen-activated protein kinase kinase kinase kinase 1 (Homo sapiens) (UniProt Q92918); details: Compound concentration 1000.0 nM
[30] = molecular target: Myosin-IIIb (Homo sapiens) (UniProt Q8WXR4); details: Compound concentration 1000.0 nM
[31] = molecular target: 5-hydroxytryptamine receptor 1D (Homo sapiens) (UniProt P28221); details: Compound concentration 10.0 uM
[32] = test system: Epidermal growth factor receptor (Homo sapiens), P00533 [L858R,T790M]; details: Compound concentration 1000.0 nM
[33] = molecular target: Insulin receptor (Homo sapiens) (UniProt P06213); details: Compound concentration 1000.0 nM
[34] = molecular target: Insulin receptor-related protein (Homo sapiens) (UniProt P14616); details: Compound concentration 1000.0 nM
[35] = molecular target: Histamine H1 receptor (Homo sapiens) (UniProt P35367); details: Compound concentration 10.0 uM
[36] = molecular target: Rhodopsin kinase GRK7 (Homo sapiens) (UniProt Q8WTQ7); details: Compound concentration 1000.0 nM
Sequence of Rhodopsin kinase GRK7 (Homo sapiens) (Q8WTQ7 whole entry): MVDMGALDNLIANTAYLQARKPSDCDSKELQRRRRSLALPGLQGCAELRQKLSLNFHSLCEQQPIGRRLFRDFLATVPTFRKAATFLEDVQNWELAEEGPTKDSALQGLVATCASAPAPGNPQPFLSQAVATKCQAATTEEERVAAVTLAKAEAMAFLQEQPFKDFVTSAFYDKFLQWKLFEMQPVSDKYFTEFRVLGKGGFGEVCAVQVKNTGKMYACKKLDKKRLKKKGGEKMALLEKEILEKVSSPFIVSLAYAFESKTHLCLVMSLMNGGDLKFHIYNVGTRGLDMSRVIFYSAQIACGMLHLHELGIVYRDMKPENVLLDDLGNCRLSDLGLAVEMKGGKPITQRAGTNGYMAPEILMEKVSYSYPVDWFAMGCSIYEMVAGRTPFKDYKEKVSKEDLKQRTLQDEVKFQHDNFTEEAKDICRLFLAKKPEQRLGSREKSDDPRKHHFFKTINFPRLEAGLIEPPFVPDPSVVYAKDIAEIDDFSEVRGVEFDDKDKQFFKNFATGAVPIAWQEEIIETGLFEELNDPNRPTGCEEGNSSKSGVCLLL

[37] = test system: Tyrosine-protein kinase ABL1 (Homo sapiens), P00519 [F317I]; details: Compound concentration 1000.0 nM
[38] = molecular target: Tyrosine-protein kinase SYK (Homo sapiens) (UniProt P43405); details: Compound concentration 1000.0 nM
[39] = molecular target: Alpha-2C adrenergic receptor (Homo sapiens) (UniProt P18825); details: Compound concentration 10.0 uM
Sequence of Alpha-2C adrenergic receptor (Homo sapiens) (P18825 whole entry): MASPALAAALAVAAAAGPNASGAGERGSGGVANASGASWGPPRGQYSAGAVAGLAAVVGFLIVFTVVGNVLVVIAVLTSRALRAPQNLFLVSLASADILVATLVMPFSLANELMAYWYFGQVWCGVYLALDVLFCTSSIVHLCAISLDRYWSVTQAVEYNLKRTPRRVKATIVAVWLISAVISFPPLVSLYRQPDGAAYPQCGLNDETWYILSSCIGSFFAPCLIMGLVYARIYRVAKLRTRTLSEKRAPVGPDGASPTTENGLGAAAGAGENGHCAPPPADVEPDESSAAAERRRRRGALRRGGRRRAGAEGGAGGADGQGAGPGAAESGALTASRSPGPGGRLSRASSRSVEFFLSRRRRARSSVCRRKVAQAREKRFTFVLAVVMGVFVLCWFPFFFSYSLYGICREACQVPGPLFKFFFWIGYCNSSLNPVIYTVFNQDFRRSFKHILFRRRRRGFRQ

[40] = molecular target: Fibroblast growth factor receptor 2 (Homo sapiens) (UniProt P21802); details: Compound concentration 1000.0 nM
[41] = molecular target: Serine/threonine-protein kinase 32A (Homo sapiens) (UniProt Q8WU08); details: Compound concentration 1000.0 nM
[42] = test system: Receptor-type tyrosine-protein kinase FLT3 (Homo sapiens), P36888 [R834Q]; details: Compound concentration 1000.0 nM
[43] = molecular target: Serine/threonine-protein kinase STK11 (Homo sapiens) (UniProt Q15831); details: Compound concentration 1000.0 nM
Sequence of Serine/threonine-protein kinase STK11 (Homo sapiens) (Q15831 whole entry): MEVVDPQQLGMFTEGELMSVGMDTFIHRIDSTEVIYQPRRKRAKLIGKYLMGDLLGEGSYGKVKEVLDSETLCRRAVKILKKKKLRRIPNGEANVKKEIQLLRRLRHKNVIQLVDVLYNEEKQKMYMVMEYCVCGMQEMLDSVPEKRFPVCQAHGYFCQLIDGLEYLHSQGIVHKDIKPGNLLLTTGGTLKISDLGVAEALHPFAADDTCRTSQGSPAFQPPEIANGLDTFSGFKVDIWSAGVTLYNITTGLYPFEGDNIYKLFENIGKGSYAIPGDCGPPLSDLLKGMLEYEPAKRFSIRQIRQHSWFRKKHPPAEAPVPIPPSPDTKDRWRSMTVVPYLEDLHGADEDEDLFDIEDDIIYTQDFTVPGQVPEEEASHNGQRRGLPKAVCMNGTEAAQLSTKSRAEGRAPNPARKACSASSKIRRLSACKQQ

[44] = molecular target: Myotonin-protein kinase (Homo sapiens) (UniProt Q09013); details: Compound concentration 1000.0 nM
[45] = molecular target: Serine/threonine-protein kinase WNK4 (Homo sapiens) (UniProt Q96J92); details: Compound concentration 1000.0 nM
Sequence of Serine/threonine-protein kinase WNK4 (Homo sapiens) (Q96J92 whole entry): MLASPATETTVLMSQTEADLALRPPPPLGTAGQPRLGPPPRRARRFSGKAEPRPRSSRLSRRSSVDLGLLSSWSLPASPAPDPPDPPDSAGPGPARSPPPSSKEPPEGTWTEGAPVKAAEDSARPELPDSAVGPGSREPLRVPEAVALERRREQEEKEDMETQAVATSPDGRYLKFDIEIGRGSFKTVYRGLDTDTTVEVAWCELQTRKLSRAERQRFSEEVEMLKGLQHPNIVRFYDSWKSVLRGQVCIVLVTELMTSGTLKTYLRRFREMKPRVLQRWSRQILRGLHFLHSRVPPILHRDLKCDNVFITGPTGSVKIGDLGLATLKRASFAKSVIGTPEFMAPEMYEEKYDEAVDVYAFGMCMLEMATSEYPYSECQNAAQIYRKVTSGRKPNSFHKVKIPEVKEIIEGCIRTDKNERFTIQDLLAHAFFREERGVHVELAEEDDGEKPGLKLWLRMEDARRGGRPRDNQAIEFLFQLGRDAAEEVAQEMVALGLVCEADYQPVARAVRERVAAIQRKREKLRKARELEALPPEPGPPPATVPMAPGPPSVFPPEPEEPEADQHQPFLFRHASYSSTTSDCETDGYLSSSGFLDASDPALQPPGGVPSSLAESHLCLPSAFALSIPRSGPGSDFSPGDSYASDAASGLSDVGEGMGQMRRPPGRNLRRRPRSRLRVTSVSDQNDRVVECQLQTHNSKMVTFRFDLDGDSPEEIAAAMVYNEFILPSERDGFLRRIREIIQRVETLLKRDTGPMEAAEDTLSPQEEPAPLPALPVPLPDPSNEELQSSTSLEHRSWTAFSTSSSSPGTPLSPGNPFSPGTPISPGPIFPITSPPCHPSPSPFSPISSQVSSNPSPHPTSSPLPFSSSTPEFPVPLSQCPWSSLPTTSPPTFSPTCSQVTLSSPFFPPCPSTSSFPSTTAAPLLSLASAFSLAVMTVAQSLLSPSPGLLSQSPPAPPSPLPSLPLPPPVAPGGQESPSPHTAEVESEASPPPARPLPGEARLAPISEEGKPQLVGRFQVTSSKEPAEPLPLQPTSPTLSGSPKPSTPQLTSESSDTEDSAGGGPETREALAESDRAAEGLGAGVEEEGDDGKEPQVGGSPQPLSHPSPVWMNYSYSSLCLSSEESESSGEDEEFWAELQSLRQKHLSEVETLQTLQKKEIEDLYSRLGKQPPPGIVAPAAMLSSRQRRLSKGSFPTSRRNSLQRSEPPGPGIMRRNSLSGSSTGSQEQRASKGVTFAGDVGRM

## O=C(Nc1cccnn1)N1CCC(=Cc2cccc(Oc3ccc(C(F)(F)F)cn3)c2)CC1
[1]
  residual activity: 66%
[2]
  residual activity: 95%
[3]
  residual activity: 92%
[4]
  residual activity: 83%
[5]
  residual activity: 76%
[6]
  residual activity: 100%
[7]
  residual activity: 100%
[8]
  residual activity: 99%
[9]
  residual activity: 100%
[10]
  residual activity: 100%
[11]
  residual activity: 100%
[12]
  residual activity: 100%
[13]
  residual activity: 100%
[14]
  residual activity: 69%
[15]
  residual activity: 100%
[16]
  residual activity: 94%
[17]
  residual activity: 100%
[18]
  residual activity: 98%
[19]
  residual activity: 91%
[20]
  residual activity: 100%
[21]
  inhibition: 20.2%
[22]
  residual activity: 100%
[23]
  inhibition: 7.38%
[24]
  residual activity: 100%
[25]
  residual activity: 74%
[26]
  residual activity: 100%
[27]
  residual activity: 100%
[28]
  residual activity: 77%
[29]
  residual activity: 80%
[30]
  residual activity: 100%
[31]
  inhibition: 42.1%
[32]
  residual activity: 99%
[33]
  residual activity: 100%
[34]
  residual activity: 100%
[35]
  inhibition: 27.2%
[36]
  residual activity: 100%
[37]
  residual activity: 100%
[38]
  residual activity: 100%
[39]
  inhibition: 79.3%
[40]
  residual activity: 96%
[41]
  residual activity: 100%
[42]
  residual activity: 100%
[43]
  residual activity: 100%
[44]
  residual activity: 100%
[45]
  residual activity: 96%

## O=C(Nc1cccnn1)N1CC(C/C=C/c2cncc(Oc3ccc(C(F)(F)F)cn3)n2)C1
[1]
  residual activity: 100%
[2]
  residual activity: 100%
[3]
  residual activity: 100%
[4]
  residual activity: 100%
[5]
  residual activity: 100%
[6]
  residual activity: 100%
[7]
  residual activity: 80%
[8]
  residual activity: 90%
[9]
  residual activity: 100%
[10]
  residual activity: 77%
[11]
  residual activity: 97%
[12]
  residual activity: 100%
[13]
  residual activity: 100%
[14]
  residual activity: 62%
[15]
  residual activity: 82%
[16]
  residual activity: 68%
[17]
  residual activity: 100%
[18]
  residual activity: 98%
[19]
  residual activity: 80%
[20]
  residual activity: 100%
[21]
  inhibition: 32.7%
[22]
  residual activity: 73%
[23]
  inhibition: -7.53%
[24]
  residual activity: 100%
[25]
  residual activity: 100%
[26]
  residual activity: 77%
[27]
  residual activity: 100%
[28]
  residual activity: 96%
[29]
  residual activity: 98%
[30]
  residual activity: 100%
[31]
  inhibition: -2.98%
[32]
  residual activity: 82%
[33]
  residual activity: 100%
[34]
  residual activity: 100%
[35]
  inhibition: 30.9%
[36]
  residual activity: 85%
[37]
  residual activity: 67%
[38]
  residual activity: 100%
[39]
  inhibition: 0.34%
[40]
  residual activity: 100%
[41]
  residual activity: 100%
[42]
  residual activity: 66%
[43]
  residual activity: 64%
[44]
  residual activity: 100%
[45]
  residual activity: 0%
